Assay results: patent US20100035793A1, “Modulators” (priority 2005, published 2010)
Non-standard residues stand in square brackets, D forms with d. No end group written: not given here. pY = N[C@@H](Cc1ccc(OP(=O)(O)O)cc1)C(=O)O

Tests used:
collagen = test: Western blot of collagen production in KF48 keloid fibroblasts; type: cell-based, human; conditions: KF48 infected with retroviral Stat3 siRNAs, FIG. 5A right panel
Experimental: (§1) These vectors containing Stat3 siRNA targets and empty vector were transfected into 293T-based Phoenix-Ampho packaging cell line for 7-9 h, and the amphotropic retroviruses were harvested 48 h later, pelleted to remove nonadherent cells and cellular debris, and filtered through a […] cellulose acetate membrane. The keloid fibroblasts were infected overnight in the presence of 4 μg/ml polybrene, and replaced with fresh 10% FBS/DMEM the following day. Cells were assayed for Western blot 48 h after infection, or for XTT cell proliferation, or for migration assay which was performed by replating the cells into 8 μM Transwell membrane and fixed 24 h later as described above.
Inhibition of Stat3 was also evaluated by incubating KF48 for 30 min with various doses of Cucurbitacin I, an inhibitor of Jak2/Stat3 activation (32), or with DMSO alone as a control, followed by further incubation in normal growth media for 48 h. […] Cucurbitacin I was acquired from Galchimia (A Corufia, Spain).
(§2) Western blot. Cells were either harvested in radioimmune precipitation assay (RIPA) buffer (150 mM NaCl, 50 mM Tris-HCl, pH 7.2, 1% deoxycholic acid, 1% Triton X-100, 0.25 mM EDTA, pH 8.0) containing protease inhibitor cocktail (Roche Diagnostics Corporation, Indianapolis, Ind., USA), or lysis buffer containing 150 mM NaCl, 10 mM Tris-HCl, pH 7.4, 0.5% Triton-X-100, 0.5% NP-40, 1 mM EDTA, 0.2 mM sodium vanadate, supplemented with protease inhibitor tablet. Total cell lysates were collected after centrifugation for 10 min at 4° C., and resolved in 7.5% or 10% polyacrylamide gel electrophoresis, and transferred to PVDF membranes (Bio-Rad Laboratories, Hercules, Calif., USA). The membranes were blotted with anti-phosphoTyr705 Stat3 antibody (1:1000 dilution; Cell Signaling, Beverly, Mass., USA) overnight at 4° C. overnight in PBS containing 1% BSA and 0.1% Tween 20, washed with PBS containing 0.2% Tween 20, and incubated with secondary anti-rabbit IgG antibody (1:2000 dilution; Sigma, Saint Louis, Mo., USA) for 1 h at room temperature, washed with PBS containing 0.2% Tween 20, followed by enhanced chemiluminescence (Amersham Biosciences, Buckinghamshire, UK) or Lumi-Light (Roche Diagnostics Corporation, Indianapolis, USA), and autoradiography. […]
Methods of assessing polypeptides regulated by STAT Collagen may be regulated by STAT 3 activation. monoclonal anti-human collagen I, II, III Was purchased from MONOSAN (Uden, Netherlands). […] These were detected via western blot as described above.

Stat3 [1] = test: Western blot of Stat3 expression in KF48 infected with retroviral Stat3 siRNAs; type: cell-based, human; conditions: KF48 infected with retrovirus expressing Stat3 siRNAs
Experimental: as §1
Western blot. Cells were either harvested in radioimmune precipitation assay (RIPA) buffer (150 mM NaCl, 50 mM Tris-HCl, pH 7.2, 1% deoxycholic acid, 1% Triton X-100, 0.25 mM EDTA, pH 8.0) containing protease inhibitor cocktail (Roche Diagnostics Corporation, Indianapolis, Ind., USA), or lysis buffer containing 150 mM NaCl, 10 mM Tris-HCl, pH 7.4, 0.5% Triton-X-100, 0.5% NP-40, 1 mM EDTA, 0.2 mM sodium vanadate, supplemented with protease inhibitor tablet. Total cell lysates were collected after centrifugation for 10 min at 4° C., and resolved in 7.5% or 10% polyacrylamide gel electrophoresis, and transferred to PVDF membranes (Bio-Rad Laboratories, Hercules, Calif., USA). The membranes were blotted with anti-phosphoTyr705 Stat3 antibody (1:1000 dilution; Cell Signaling, Beverly, Mass., USA) overnight at 4° C. overnight in PBS containing 1% BSA and 0.1% Tween 20, washed with PBS containing 0.2% Tween 20, and incubated with secondary anti-rabbit IgG antibody (1:2000 dilution; Sigma, Saint Louis, Mo., USA) for 1 h at room temperature, washed with PBS containing 0.2% Tween 20, followed by enhanced chemiluminescence (Amersham Biosciences, Buckinghamshire, UK) or Lumi-Light (Roche Diagnostics Corporation, Indianapolis, USA), and autoradiography. The membranes were stripped with Restore Western Blotting Stripping Buffer (Pierce, Rockford, Ill., USA) according to manufacturer's instructions and reblotted with anti-phosphoSer727 Stat3 (1:1000 dilution; Cell Signaling, Beverly, Mass., USA) and secondary anti-mouse IgG antibody (1:2000 dilution; Sigma, Saint Louis, Mo., USA). The stripping and reblotting procedure was repeated with monoclonal anti-Stat3 (1:1000 dilution; BD Transduction Laboratories), polyclonal anti-actin (1:1000 dilution; Sigma) and monoclonal anti-collagen antibody (1:1000 dilution; MONOSAN).

KF48 keloid fibroblasts [2] = test: Scratch-wound migration assay; type: cell-based, human; conditions: KF48 infected with Stat3 siRNA retrovirus, 15 h after wounding, vs vector
Experimental: Cell migration in keloidflbroblasts is inhibited by Stat3 siRNA and Cucurbitacin I. To examine the role of Stat3 in cell migration of skin fibroblasts, KF48 cells were infected with retrovirus expressing Stat3 siRNAs and scratch assays were performed as previously described. […] Three non-overlapping fields were acquired, and graphically illustrated as mean±SD in FIG. 8B. Transmembrane cell migration assays were also performed in triplicates as described earlier, and quantified as mean±SD (FIG. 8C). […] The right panels in FIG. 8B and 8C depict immunoblots of Stat3 and actin to show the efficiencies of inhibition by the Stat3 siRNAs.
The role of Stat3 in cell migration was also examined using Cucurbitacin I in the scratch assay. KF48 cells were first incubated with 10 μg/ml mitomycin C for 2 h, before treating for 30 min with DMSO or 1 μM Cucurbitacin I. The scratch-wound was performed, followed by further incubation in normal growth media. Pictures were taken at 0 h, 22 h and 48 h after wounding.
Migration assay. For migration assay using the scratch method, cells were grown to confluence and incubated with 10 μg/ml mitomycin C for 2 h, before a scratch wound was introduced using a yellow pipette tip. Cells were further incubated in normal growth media and pictures were taken at 0 h, 14 h, 15 h, 22 h, or 48 h after wounding. Three non-overlapping fields were captured by Axiovert 135 microscope from Zeiss and cells migrated into the wound site were counted and presented as mean±SD.

Stat3 [3] = test: Western blot of Stat3 expression in packaging cells transfected with Stat3 siRNA vectors; parameters: species or system human; conditions: 293T-based amphotropic packaging cell line, FIG. 5A left panel
Source text: Retroviral Stat3 siRNA. Four different targets designed against STAT 3 were selected and cloned into BglII and XhoI into pSUPER.retro.puro from OligoEngine, and sequenced (STAT 3 Genbank Accession number NM_139276). The four targets are named STAT 3 siRNA 1 (nt. 461-480) SEQ ID 1, STAT 3 siRNA 2 (nt. 1264-1283) SEQ ID 2, STAT 3 siRNA 3 (nt. 364-383) GATTGGGCATATGCGGCCA, and STAT 3 siRNA 4 (nt. 1662-1681) SEQ ID 3. The corresponding primers with a 9-nt short hairpin in the middle (bold) are
as §1
as §2, with “autoradiography. The membranes were stripped with Restore Western Blotting Stripping Buffer (Pierce, Rockford, Ill., USA) according to manufacturer's instructions and reblotted with anti-phosphoSer727 Stat3 (1:1000 dilution; Cell Signaling, Beverly, Mass., USA) and secondary anti-mouse IgG antibody (1:2000 dilution; Sigma, Saint Louis, Mo., USA).” for “autoradiography.”

KF48 keloid fibroblasts [4] = test: Transwell migration assay; type: cell-based, human; conditions: KF48 infected with Stat3 siRNA retrovirus, vs vector
Experimental: as §1
Migration assay was also performed using the Transwell 8.0 μM pore size polycarbonate membrane (Corning Inc.). 1×10^4 cells/well were seeded at the top of the insert in 0.2 ml serum-free DMEM, with 0.5 ml 10% FBS/DMEM in the bottom chamber as chemoattractant. 24 h later, cells were washed once in cold PBS, before fixing with 4% paraformaldehyde in PBS for 15 min at room temperature. Cells were permeabilized with 0.1% Triton X-100 in PBS for 3 min at room temperature, and stained with haematoxylin for 10 min at room temperature, followed by destain with water thrice. Cells from the top of the inserts were removed by cotton swabs, and inserts were left to dry. The inserts were mounted onto slides and three non-overlapping fields of cells migrated to the bottom of the inserts were captured using Leica DM4000 B microscope.

Stat3 [5] = molecular target: T1, Stat3 (Homo sapiens, UniProt P40763); conditions: cited from earlier work; for levels of DNA binding activities of STAT 3: peptide present in nuclear extracts
T1 sequence (P40763 whole entry, species assumed): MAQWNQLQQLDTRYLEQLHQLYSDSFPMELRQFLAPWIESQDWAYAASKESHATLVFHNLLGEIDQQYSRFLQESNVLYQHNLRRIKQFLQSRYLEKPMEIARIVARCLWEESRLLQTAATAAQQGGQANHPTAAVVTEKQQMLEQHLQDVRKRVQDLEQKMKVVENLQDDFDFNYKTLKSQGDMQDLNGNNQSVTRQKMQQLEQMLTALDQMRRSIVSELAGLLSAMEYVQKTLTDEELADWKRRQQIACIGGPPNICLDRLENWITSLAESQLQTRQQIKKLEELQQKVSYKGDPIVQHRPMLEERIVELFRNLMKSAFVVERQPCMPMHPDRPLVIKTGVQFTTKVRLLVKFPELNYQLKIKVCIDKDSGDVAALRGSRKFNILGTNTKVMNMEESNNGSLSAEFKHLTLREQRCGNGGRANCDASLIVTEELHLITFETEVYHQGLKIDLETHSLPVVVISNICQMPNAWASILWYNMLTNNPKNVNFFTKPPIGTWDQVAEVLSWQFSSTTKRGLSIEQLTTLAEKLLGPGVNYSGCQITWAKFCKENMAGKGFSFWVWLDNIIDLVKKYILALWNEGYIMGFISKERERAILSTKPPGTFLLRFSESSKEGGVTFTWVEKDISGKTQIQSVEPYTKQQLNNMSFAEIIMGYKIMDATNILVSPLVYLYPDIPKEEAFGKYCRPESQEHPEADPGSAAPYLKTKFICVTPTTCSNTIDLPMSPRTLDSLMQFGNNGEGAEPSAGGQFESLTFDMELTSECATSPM

STAT 5 = conditions: peptide present in nuclear extracts; cited from earlier work
Stat3 [6] = molecular target: T1, Stat3; conditions: cited from earlier work
JAK2 = JAK2 (Homo sapiens, UniProt O60674); conditions: cited from earlier work
Sequence of JAK2 (O60674 whole entry, species assumed): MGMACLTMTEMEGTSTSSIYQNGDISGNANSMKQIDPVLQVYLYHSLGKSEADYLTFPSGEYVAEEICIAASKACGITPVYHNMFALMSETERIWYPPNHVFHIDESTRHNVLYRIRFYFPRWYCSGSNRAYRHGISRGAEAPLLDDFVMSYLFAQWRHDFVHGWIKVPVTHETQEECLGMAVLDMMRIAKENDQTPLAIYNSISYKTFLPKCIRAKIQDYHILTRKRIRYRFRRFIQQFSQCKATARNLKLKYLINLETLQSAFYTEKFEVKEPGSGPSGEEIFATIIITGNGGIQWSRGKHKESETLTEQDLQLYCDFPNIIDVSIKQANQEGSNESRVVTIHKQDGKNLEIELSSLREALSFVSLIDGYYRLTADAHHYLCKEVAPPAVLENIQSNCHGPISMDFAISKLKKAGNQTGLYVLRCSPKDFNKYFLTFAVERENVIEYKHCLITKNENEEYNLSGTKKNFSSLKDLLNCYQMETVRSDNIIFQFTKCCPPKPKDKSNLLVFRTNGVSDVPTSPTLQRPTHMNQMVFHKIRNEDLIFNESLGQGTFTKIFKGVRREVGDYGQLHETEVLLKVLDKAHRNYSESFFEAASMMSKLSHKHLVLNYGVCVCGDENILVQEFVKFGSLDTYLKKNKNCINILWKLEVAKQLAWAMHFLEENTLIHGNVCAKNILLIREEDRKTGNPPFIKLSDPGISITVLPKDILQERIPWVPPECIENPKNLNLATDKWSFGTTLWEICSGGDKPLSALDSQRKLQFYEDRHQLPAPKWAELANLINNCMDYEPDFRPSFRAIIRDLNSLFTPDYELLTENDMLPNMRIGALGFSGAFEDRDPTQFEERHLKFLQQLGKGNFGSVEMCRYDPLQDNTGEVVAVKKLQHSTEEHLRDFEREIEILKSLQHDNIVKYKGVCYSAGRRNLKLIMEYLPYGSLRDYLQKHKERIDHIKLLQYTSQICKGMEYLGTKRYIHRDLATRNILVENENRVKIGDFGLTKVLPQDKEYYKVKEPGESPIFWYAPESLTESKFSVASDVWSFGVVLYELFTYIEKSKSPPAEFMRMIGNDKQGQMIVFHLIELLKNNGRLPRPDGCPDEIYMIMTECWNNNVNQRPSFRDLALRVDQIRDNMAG

KF48 keloid fibroblasts [7] = test: XTT proliferation assay; type: cell-based, human
Source text: Inhibition of Stat3 decreases cell proliferation. Enhanced fibroblast proliferation is a characteristic of keloid tissue. In agreement with this, keloid fibroblasts grown in normal culture conditions proliferated faster than normal fibroblasts, as observed in KF48 and KF107 compared to NF2 and NF4 (FIG. 6A). To investigate whether Stat3 is involved in the enhanced keloid fibroblast proliferation, KF48 was infected with retrovirus expressing Stat3 siRNAs, and cell proliferation was examined. […] XTT proliferation assay. Cells seeded at 3,000 cells/well in 96-well plates and grown in normal growth conditions, or infected with retroviral Stat3 siRNAs, were assayed for proliferation using the XrT proliferation kit (Roche) according to the manufacturer's instructions. The readings were taken at 450 nm and referenced against 690 nm, 2 h after the addition of the XrT reagent. Each sample was performed at quadruplicates in two to three independent experiments. Data are presented as mean±SD
Cell proliferation was also investigated by treating KF48 cells with various doses of Cucurbitacin I or with DMSO control, before incubating in normal growth media and examined daily over 4 days. Cucurbitacin I concentration as low as I μM was able to inhibit cell proliferation of KF48 compared to DMSO and untreated control (0 μM), whereas Cucurbitacin I exposure at 5 μM and above seemed to cause cell death (FIG. 6C).

Stat3 [8] = molecular target: T1, Stat3; conditions: cited from earlier work; remark: listed apart in the source
breast carcinoma cells = conditions: cited from earlier work

Compound | inhibition of Stat3 expression (Stat3 [1]) | rate of cell migration, scratch assay (KF48 keloid fibroblasts [2]) | inhibitory effect on Stat3 expression (Stat3 [3]) | cell migration, Transwell (KF48 keloid fibroblasts [4]) | inhibition of activation of STAT 3 (Stat3 [6]) | inhibition of activation of JAK2 (JAK2) | other results
Stat3 siRNA 1: siRNA target nt. 461-480 of STAT 3 (NM—139276), AGTCGAATGTTCTCTATCA, hairpin primers SEQ ID 4 and 5, retroviral vector | inhibit Stat3 expression | impede the rate of cell migration | inhibitory effect | hinder the cell migration | – | – | inhibition of collagen production (collagen): inhibition of collagen production
PY*LKTK: Stat3 SH2 domain-binding phosphopeptide, Y* represents phosphotyrosine (P[pY]LKTK; UniProt P40763 704-709, looked up, fragment) | – | – | – | – | – | – | STAT 3 biochemical activity and biological function (Stat3 [5]): inhibit; levels of DNA binding activities of STAT 3 (Stat3 [5]): significant reduction; levels of DNA binding activities of STAT 5 (STAT 5): no effect
PYLKTK: non-phosphorylated control peptide of PY*LKTK (UniProt P40763 704-709, looked up, fragment) | – | – | – | – | – | – | levels of DNA binding activities of STAT 3 (Stat3 [5]): not
CC(=O)OC(C)(C)/C=C/C(=O)[C@](C)(O)[C@H]1[C@H](O)C[C@@]2(C)[C@@H]3CC=C4[C@H](C[C@H](O)C(=O)C4(C)C)[C@]3(C)C(=O)C[C@]12C [Cucurbitacin B] | – | – | – | – | inhibit | inhibit | –
CC(=O)OC(C)(C)/C=C/C(=O)[C@](C)(O)[C@H]1[C@H](O)C[C@@]2(C)[C@@H]3CC=C4[C@@H](C[C@H](O)C(=O)C4(C)C)[C@]3(CO)C(=O)C[C@]12C [Cucurbitacin A] | – | – | – | – | not | inhibits | –
Stat3 siRNA 2: siRNA target nt. 1264-1283 of STAT 3, GGCGTCCAGTTCACTACTA, hairpin primers SEQ ID 6 and 7, retroviral vector | inhibit Stat3 expression | impede the rate of cell migration | inhibitory effect | hinder the cell migration | – | – | inhibition of collagen production (collagen): inhibition of collagen production
CC(=O)OC(C)(C)/C=C/C(=O)[C@](C)(O)[C@H]1[C@H](O)C[C@@]2(C)[C@@H]3CC=C4[C@@H](C=C(O)C(=O)C4(C)C)[C@]3(C)C(=O)C[C@]12C [Cucurbitacin E] | – | – | – | – | inhibit | inhibit | –
Stat3 siRNA 4: siRNA target nt. 1662-1681 of STAT 3, GCGTCCATCCTGTGGTACA, hairpin primers SEQ ID 8 and 9, retroviral vector | inhibit Stat3 expression | impede the rate of cell migration | inhibitory effect | hinder the cell migration | – | – | inhibition of collagen production (collagen): inhibition of collagen production; relative effectiveness among the siRNAs tested (KF48 keloid fibroblasts [7]; keloid fibroblast collagen production, proliferation and migration): most effective; cell proliferation of KF48 (KF48 keloid fibroblasts [7]; retroviral Stat3 siRNA, vs noninfected, vector and Stat3 siRNA 3, FIG. 6B): decreased cell proliferation
C[C@@H]1CC(=O)c2c(ccc3c2C(=O)c2cccc(O)c2C3=O)C1 [STA-21] | – | – | – | – | – | – | Stat3-dependent luciferase activity (Stat3 [8]): inhibits; Stat3 DNA binding activity (Stat3 [8]): inhibits; Stat3 dimerization (Stat3 [8]): inhibits; effect on cells in which constitutive Stat3 signaling is absent (breast carcinoma cells): minimal effect; survival of breast carcinoma cells with constitutive Stat3 signaling (breast carcinoma cells): reduces the survival
Stat3 siRNA 3: siRNA target nt. 364-383 of STAT 3, GATTGGGCATATGCGGCCA, retroviral vector; does not inhibit Stat3 | does not inhibit Stat3 | did not | not | did not | – | – | –
PY*L: tripeptide derivative of PY*LKTK, Y* represents phosphotyrosine (Pro-[pY]-Leu; UniProt P40763 704-706, looked up, fragment) | – | – | – | – | – | – | STAT 3 biochemical activity and biological function (Stat3 [5]): inhibit
Cucurbitacin Q | – | – | – | – | inhibits | not | –
